Paper PMC12454493, “Insight on novel sulfamoylphenyl pyrazole derivatives as anticancer carbonic anhydrase inhibitors” (Molecular Diversity, 2024)
Values joined by “and” are separate entries in the source; they are usually repeats but may differ in a detail not shown here. Equal entries are not always repeated.

Assays:
UACC-257 = assay: NCI-60 one-dose SRB screen (Melanoma); format: cell-based; conditions: Homo sapiens, single dose 10 µM, 48 h, read-out: Growth inhibition percent (GI %)
M14 = assay: NCI-60 one-dose SRB screen (Melanoma); format: cell-based; conditions: Homo sapiens, single dose 10 µM, 48 h, read-out: Growth inhibition percent (GI %)
UACC-62 = assay: NCI-60 one-dose SRB screen (Melanoma); format: cell-based; conditions: Homo sapiens, single dose 10 µM, 48 h, read-out: Growth inhibition percent (GI %)
SK-MEL-2 = assay: NCI-60 one-dose SRB screen (Melanoma); format: cell-based; conditions: Homo sapiens, single dose 10 µM, 48 h, read-out: Growth inhibition percent (GI %)
MALME-3M = assay: NCI-60 one-dose SRB screen (Melanoma); format: cell-based; conditions: Homo sapiens, single dose 10 µM, 48 h, read-out: Growth inhibition percent (GI %)
SK-MEL-5 = assay: NCI-60 one-dose SRB screen (Melanoma); format: cell-based; conditions: Homo sapiens, single dose 10 µM, 48 h, read-out: Growth inhibition percent (GI %)
SK-MEL-28 = assay: NCI-60 one-dose SRB screen (Melanoma); format: cell-based; conditions: Homo sapiens, single dose 10 µM, 48 h, read-out: Growth inhibition percent (GI %)
MDA-MB-435 = assay: NCI-60 one-dose SRB screen (Melanoma); format: cell-based; conditions: Homo sapiens, single dose 10 µM, 48 h, read-out: Growth inhibition percent (GI %)
LOX IMVI = assay: NCI-60 one-dose SRB screen (Melanoma); format: cell-based; conditions: Homo sapiens, single dose 10 µM, 48 h, read-out: Growth inhibition percent (GI %)
MCF-7 = assay: NCI-60 one-dose SRB screen (Breast Cancer); format: cell-based; conditions: Homo sapiens, MCF7, single dose 10 µM, 48 h, read-out: Growth inhibition percent (GI %)
MDA-MB-231/ATCC = assay: NCI-60 one-dose SRB screen (Breast Cancer); format: cell-based; conditions: Homo sapiens, single dose 10 µM, 48 h, read-out: Growth inhibition percent (GI %)
HS 578T = assay: NCI-60 one-dose SRB screen (Breast Cancer); format: cell-based; conditions: Homo sapiens, single dose 10 µM, 48 h, read-out: Growth inhibition percent (GI %)
MDA-MB-468 = assay: NCI-60 one-dose SRB screen (Breast Cancer); format: cell-based; conditions: Homo sapiens, single dose 10 µM, 48 h, read-out: Growth inhibition percent (GI %)
PC-3 = assay: NCI-60 one-dose SRB screen (Prostate Cancer); format: cell-based; conditions: Homo sapiens, single dose 10 µM, 48 h, read-out: Growth inhibition percent (GI %)
DU-145 = assay: NCI-60 one-dose SRB screen (Prostate Cancer); format: cell-based; conditions: Homo sapiens, single dose 10 µM, 48 h, read-out: Growth inhibition percent (GI %)
hCA XII = hCA XII (Homo sapiens, UniProt O43570); assay: CA inhibitory activity, spectrophotometric p-NPA assay; format: biochemical; conditions: for IC50: p-NPA substrate, pH 7.5, 25 °C, triplicate, read-out: IC50 (µM) ± SD hCA XII
Sequence of hCA XII (O43570 25-354): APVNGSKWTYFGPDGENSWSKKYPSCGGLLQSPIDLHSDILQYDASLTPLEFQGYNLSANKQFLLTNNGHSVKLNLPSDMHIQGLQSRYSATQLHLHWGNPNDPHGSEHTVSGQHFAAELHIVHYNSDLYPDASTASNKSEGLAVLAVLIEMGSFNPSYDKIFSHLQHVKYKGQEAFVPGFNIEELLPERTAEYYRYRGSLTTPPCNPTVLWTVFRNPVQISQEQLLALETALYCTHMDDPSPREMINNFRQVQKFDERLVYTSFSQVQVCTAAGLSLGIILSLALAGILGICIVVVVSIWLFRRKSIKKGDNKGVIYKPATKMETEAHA

U251 = assay: NCI-60 one-dose SRB screen (CNS Cancer); format: cell-based; conditions: Homo sapiens, U-251, single dose 10 µM, 48 h, read-out: Growth inhibition percent (GI %)
SF-295 = assay: NCI-60 one-dose SRB screen (CNS Cancer); format: cell-based; conditions: Homo sapiens, single dose 10 µM, 48 h, read-out: Growth inhibition percent (GI %)
SF-268 = assay: NCI-60 one-dose SRB screen (CNS Cancer); format: cell-based; conditions: Homo sapiens, single dose 10 µM, 48 h, read-out: Growth inhibition percent (GI %)
SNB-75 = assay: NCI-60 one-dose SRB screen (CNS Cancer); format: cell-based; conditions: Homo sapiens, single dose 10 µM, 48 h, read-out: Growth inhibition percent (GI %)
SF-539 = assay: NCI-60 one-dose SRB screen (CNS Cancer); format: cell-based; conditions: Homo sapiens, single dose 10 µM, 48 h, read-out: Growth inhibition percent (GI %)
SNB-19 = assay: NCI-60 one-dose SRB screen (CNS Cancer); format: cell-based; conditions: Homo sapiens, single dose 10 µM, 48 h, read-out: Growth inhibition percent (GI %)
NCI-H23 = assay: NCI-60 one-dose SRB screen (Non-Small Cell Lung Cancer); format: cell-based; conditions: Homo sapiens, single dose 10 µM, 48 h, read-out: Growth inhibition percent (GI %)
EKVX = assay: as above; format: cell-based; conditions: Homo sapiens, single dose 10 µM, 48 h, read-out: Growth inhibition percent (GI %)
HOP-62 = assay: as above; format: cell-based; conditions: Homo sapiens, single dose 10 µM, 48 h, read-out: Growth inhibition percent (GI %)
NCI-H226 = assay: as above; format: cell-based; conditions: Homo sapiens, single dose 10 µM, 48 h, read-out: Growth inhibition percent (GI %)
NCI-H460 = assay: as above; format: cell-based; conditions: Homo sapiens, single dose 10 µM, 48 h, read-out: Growth inhibition percent (GI %)
NCI-H322M = assay: as above; format: cell-based; conditions: Homo sapiens, single dose 10 µM, 48 h, read-out: Growth inhibition percent (GI %)
NCI-H522 = assay: as above; format: cell-based; conditions: Homo sapiens, single dose 10 µM, 48 h, read-out: Growth inhibition percent (GI %)
HOP-92 = assay: as above; format: cell-based; conditions: Homo sapiens, single dose 10 µM, 48 h, read-out: Growth inhibition percent (GI %)
A549/ATCC = assay: as above; format: cell-based; conditions: Homo sapiens, single dose 10 µM, 48 h, read-out: Growth inhibition percent (GI %)
MOLT-4 = assay: NCI-60 one-dose SRB screen (Leukemia); format: cell-based; conditions: Homo sapiens, single dose 10 µM, 48 h, read-out: Growth inhibition percent (GI %)
CCRF-CEM = assay: NCI-60 one-dose SRB screen (Leukemia); format: cell-based; conditions: Homo sapiens, single dose 10 µM, 48 h, read-out: Growth inhibition percent (GI %)
RPMI-8226 = assay: NCI-60 one-dose SRB screen (Leukemia); format: cell-based; conditions: Homo sapiens, single dose 10 µM, 48 h, read-out: Growth inhibition percent (GI %)
SR = assay: NCI-60 one-dose SRB screen (Leukemia); format: cell-based; conditions: Homo sapiens, single dose 10 µM, 48 h, read-out: Growth inhibition percent (GI %)
K-562 = assay: NCI-60 one-dose SRB screen (Leukemia); format: cell-based; conditions: Homo sapiens, K562, single dose 10 µM, 48 h, read-out: Growth inhibition percent (GI %)
HL-60(TB) = assay: NCI-60 one-dose SRB screen (Leukemia); format: cell-based; conditions: Homo sapiens, single dose 10 µM, 48 h, read-out: Growth inhibition percent (GI %)
SK-OV-3 = assay: NCI-60 one-dose SRB screen (Ovarian cancer); format: cell-based; conditions: Homo sapiens, single dose 10 µM, 48 h, read-out: Growth inhibition percent (GI %)
OVCAR-3 = assay: NCI-60 one-dose SRB screen (Ovarian cancer); format: cell-based; conditions: Homo sapiens, single dose 10 µM, 48 h, read-out: Growth inhibition percent (GI %)
OVCAR-4 = assay: NCI-60 one-dose SRB screen (Ovarian cancer); format: cell-based; conditions: Homo sapiens, single dose 10 µM, 48 h, read-out: Growth inhibition percent (GI %)
IGROV1 = assay: NCI-60 one-dose SRB screen (Ovarian cancer); format: cell-based; conditions: Homo sapiens, IGROV-1, single dose 10 µM, 48 h, read-out: Growth inhibition percent (GI %)
OVCAR-5 = assay: NCI-60 one-dose SRB screen (Ovarian cancer); format: cell-based; conditions: Homo sapiens, single dose 10 µM, 48 h, read-out: Growth inhibition percent (GI %)
NCI/ADR-RES = assay: NCI-60 one-dose SRB screen (Ovarian cancer); format: cell-based; conditions: Homo sapiens, single dose 10 µM, 48 h, read-out: Growth inhibition percent (GI %)
OVCAR-8 = assay: NCI-60 one-dose SRB screen (Ovarian cancer); format: cell-based; conditions: Homo sapiens, single dose 10 µM, 48 h, read-out: Growth inhibition percent (GI %)
hCA IX = hCA IX (Homo sapiens, UniProt Q16790); assay: CA inhibitory activity, spectrophotometric p-NPA assay; format: biochemical; conditions: p-NPA substrate, pH 7.5, 25 °C, triplicate; read-out: IC50 (µM) ± SD hCA IX

`CCOC(=O)c1ccc(NC(=O)COC(=O)c2cn(-c3ccc(S(N)(=O)=O)cc3)nc2-c2ccc(C)cc2)cc1` [Compound 5b, 2-[(4-(Ethoxycarbonyl)phenyl)amino]-2-oxoethyl 1-(4-sulfamoylphenyl)-3-(p-tolyl)-1H-pyrazole-4-carboxylate] gave an inhibition at 10 µM (UACC-257) of 39.1%, an inhibition at 10 µM (M14) of 56.9% and an inhibition at 10 µM (UACC-62) of 53.4%. It also gave an inhibition at 10 µM (SK-MEL-2) of 27.9%, an inhibition at 10 µM (MALME-3M) of 35.5% and an inhibition at 10 µM (SK-MEL-5) of 39.3%. The inhibition at 10 µM (SK-MEL-28) was 48.2%, the inhibition at 10 µM (MDA-MB-435) was 47.3% and the inhibition at 10 µM (LOX IMVI) was 53.6%. The inhibition at 10 µM (MCF-7) was 78.6%, the inhibition at 10 µM (MDA-MB-231/ATCC) was 27.8% and the inhibition at 10 µM (HS 578T) was 57.9%. For the same compound, the inhibition at 10 µM (MDA-MB-468) was 52.5%, the inhibition at 10 µM (PC-3) was 68.7% and the inhibition at 10 µM (DU-145) was 28.9%. The Ki (hCA XII) was 106 nM, the IC50 (hCA XII) was 0.1 µM and 0.106 µM and the inhibition at 10 µM (U251) was 54.1%. The inhibition at 10 µM (SF-295) was 54.8%, the inhibition at 10 µM (SF-268) was 55.4% and the inhibition at 10 µM (SNB-75) was 62.9%. For the same compound, the inhibition at 10 µM (SF-539) was 60.9%, the inhibition at 10 µM (SNB-19) was 48.4% and the inhibition at 10 µM (NCI-H23) was 40.3%. The inhibition at 10 µM (EKVX) was 55.6%, the inhibition at 10 µM (HOP-62) was under 5% and the inhibition at 10 µM (NCI-H226) was 43%. It also gave an inhibition at 10 µM (NCI-H460) of 60.8%, an inhibition at 10 µM (NCI-H322M) of 23.7% and an inhibition at 10 µM (NCI-H522) of 49%. The inhibition at 10 µM (HOP-92) was 56.3%, the inhibition at 10 µM (A549/ATCC) was 51.1% and the inhibition at 10 µM (MOLT-4) was 83.8%. For the same compound, the inhibition at 10 µM (CCRF-CEM) was 75.4%, the inhibition at 10 µM (RPMI-8226) was 64.1% and the inhibition at 10 µM (SR) was 73.4%. It also gave an inhibition at 10 µM (K-562) of 74.5%, an inhibition at 10 µM (HL-60(TB)) of 70.2% and an inhibition at 10 µM (SK-OV-3) of under 5%. For the same compound, the inhibition at 10 µM (OVCAR-3) was 53.5%, the inhibition at 10 µM (OVCAR-4) was 58.8% and the inhibition at 10 µM (IGROV1) was 21.4%. It also gave an inhibition at 10 µM (OVCAR-5) of 33.1%, an inhibition at 10 µM (NCI/ADR-RES) of 22.3% and an inhibition at 10 µM (OVCAR-8) of 12.8%.
`NS(=O)(=O)c1ccc(NC(=O)COC(=O)c2cn(-c3ccc(S(N)(=O)=O)cc3)nc2-c2ccc(Br)cc2)cc1` [Compound 4d, 2-Oxo-2-[(4-sulfamoylphenyl)amino] ethyl 3-(4-bromophenyl)-1-(4-sulfamoylphenyl)-1H-pyrazole-4-carboxylate] gave an inhibition at 10 µM (UACC-257) of under 5%, an inhibition at 10 µM (M14) of 79.6% and an inhibition at 10 µM (UACC-62) of 11.9%. It also gave an inhibition at 10 µM (MALME-3M) of under 5%, an inhibition at 10 µM (SK-MEL-5) of 14.3% and an inhibition at 10 µM (SK-MEL-28) of under 5%. It also gave an inhibition at 10 µM (MDA-MB-435) of 60.1%, an inhibition at 10 µM (LOX IMVI) of 47.7% and an inhibition at 10 µM (MCF-7) of 56.4%. The inhibition at 10 µM (MDA-MB-231/ATCC) was 33.9%, the inhibition at 10 µM (HS 578T) was 36.9% and the inhibition at 10 µM (MDA-MB-468) was 66.5%. The inhibition at 10 µM (PC-3) was 23.1%, the inhibition at 10 µM (DU-145) was under 5% and the IC50 (hCA XII) was 0.81 µM and 0.814 µM. It also gave an inhibition at 10 µM (U251) of 25%, an inhibition at 10 µM (SF-295) of under 5% and an inhibition at 10 µM (SF-268) of 34.8%. It also gave an inhibition at 10 µM (SNB-75) of 64.3%, an inhibition at 10 µM (SF-539) of 26.7% and an inhibition at 10 µM (SNB-19) of 24.1%. The inhibition at 10 µM (NCI-H23) was under 5%, the inhibition at 10 µM (EKVX) was 21% and the inhibition at 10 µM (HOP-62) was under 5%. It also gave an inhibition at 10 µM (NCI-H226) of under 5%, an inhibition at 10 µM (NCI-H460) of under 5% and an inhibition at 10 µM (NCI-H322M) of 21.5%. It also gave an inhibition at 10 µM (NCI-H522) of 19.8%, an inhibition at 10 µM (HOP-92) of 49.6% and an inhibition at 10 µM (A549/ATCC) of under 5%. The IC50 (hCA IX) was 0.5 µM and 0.509 µM, the inhibition at 10 µM (MOLT-4) was 60.1% and the inhibition at 10 µM (CCRF-CEM) was 60.2%. The inhibition at 10 µM (RPMI-8226) was under 5%, the inhibition at 10 µM (SR) was 22.9% and the inhibition at 10 µM (K-562) was 82.5%. The inhibition at 10 µM (HL-60(TB)) was 37.6%, the inhibition at 10 µM (SK-OV-3) was under 5% and the inhibition at 10 µM (OVCAR-3) was 23%. The inhibition at 10 µM (OVCAR-4) was 34.6%, the inhibition at 10 µM (IGROV1) was under 5% and the inhibition at 10 µM (OVCAR-5) was 12.3%. For the same compound, the inhibition at 10 µM (OVCAR-8) was under 5%.
